Several values for one entry are separate records, joined by “and”; a condition that tells them apart may be missing. Equal entries are not always repeated.
What was measured:
[1] = tested on: transformation of CPP1 to CPP2 in pooled human serum; experiment: In vitro serum calcification propensity (T50) screening assay; type: biochemical; set-up: key to T50: T50 in minutes (time to 50% CPP phase transition); details: for activity/unit mass: mean c350 x mw (Na salt); for concentration upon which a T50 of 350 min is reached (c350), mean: mean of n experiments
primary human VSMCs = experiment: CPP2-induced VSMC calcification; type: cell-based; details: for VSMC calcium deposition, % of CPP2 control: CPP2 50 µg Ca/mL
Description: Macrophage accumulation and inflammation coincide with the initial phase of calcification. To this end, VSMCs and THP-1-derived macrophages were exposed to CPP2-supplemented medium. CPP2 prepared from human serum as described previously[61] (Supplementary Figs. 6 and 7), induced a pronounced VSMC monolayer calcification after 48 h, which was decreased by (OEG2)2-IP4 in a dose-dependent fashion, and the effect became significant at 10 µM (Fig. 3e). […] Both H2O2 (proxy for oxidative stress) and tumor necrosis factor-alpha (TNF-α) (proxy for inflammatory response) levels were assayed in the VSMC culture supernatants subsequent to CPP2 treatment with and without compounds[30]. However, no increase in H2O2 nor TNF-α compared to control could be detected in either assay. For the CPP-induced VSMC calcification assay (Fig. 3e) a roughly 10-fold higher concentration of (OEG2)2-IP4 was necessary to achieve similar activity as in the CaP-induced VSMC calcification assay (Fig. 3b). […] In the CaP assay, low inhibitor concentration may be sufficient to inhibit crystal nucleation, whereas for the CPP assay higher inhibitor concentrations may be needed to achieve sufficient particle stabilization by chemisorption of inhibitor onto CPPs. Similar results have been reported for hydrogen sulfide in the context of VC[62],[64]. […] An increase in the TNFα levels in the cell culture supernatants was not observed for (OEG2)2-IP4 with (Fig. 3h) and without (Supplementary Fig. 10) combined CPP2 treatment.
Primary human VSMCs (C-12533, PromoCell, Heidelberg, Germany) were cultured according to the manufacturer's guidelines in SMC-2 culture medium (C-22062, PromoCell) and used up to passage 7. For calcification experiments cells were seeded onto 24-well plates (TPP) at a density of 20,000 cells/well and left to attach for 48–72 h. Complete medium was M199 medium (31150022, Thermo Fischer Scientific), supplemented with 10% v/v FBS (10270106, Thermo Fisher Scientific, Waltham, MA), 1% v/v penicillin/streptomycin (15140122, Thermo Fisher Scientific), and 4 mM L-glutamine (25030024, Thermo Fisher Scientific)[80]. Calcification of cell monolayers was induced as described previously[81] by treatment with CPP2-supplemented (50 µg Ca/mL) medium with or without test compounds (1, 3, 10, 30, and 100 µM) at a volume of 1 mL/well for 48 h at 37 °C, 5% CO2. In a second assay, calcification was induced similar to previous experiments[56] by cell treatment with or without test compounds (0.01, 0.1, 1, 10, and 100 µM) in complete medium supplemented with calcium (2.7 mM) and phosphate (2.5 mM) (CaP medium) at a volume of 1 mL/well for 5 days, and treatment medium was replaced on alternate days.
Calcium deposition on cell monolayers was assessed qualitatively by staining for calcium with 2% w/v Alizarin Red S aqueous solution (pH 4.2) (05600, Fluka Analytical). Cell monolayers in 24-well plates were washed with PBS (10010015, Thermo Fischer), fixed in 10% v/v NBF in PBS (F8775, Sigma-Aldrich) for 45 min at RT, washed with milli-Q water, incubated for 3 min with 300 µL Alizarin Red S solution, washed with milli-Q, and images were acquired using a Axiovert 35 microscope (Zeiss, Carl Zeiss Microscopy GmbH, Jena, Germany) at ×100 magnification. Calcium quantitation was performed after washing cells with PBS and then decalcifying cell monolayers with 0.1 M HCl overnight at 4 °C. Acidic supernatants were centrifuged (10,000 × g, 4 °C, 10 min) and calcium content was assessed using the calcium colorimetric assay.

[2] = 3 µM, individual experiments, Fig. 2a
[3] = 10 µM, individual experiments, Fig. 2a

COCCOCCO[C@@H]1[C@@H](OP(=O)(O)O)[C@H](OCCOCCOC)[C@@H](OP(=O)(O)O)[C@@H](OP(=O)(O)O)[C@H]1OP(=O)(O)O [(OEG2)2-IP4, 4,6-Di-O-(methoxy-diethyleneglycol)-myo-inositol-1,2,3,5-tetrakis(phosphate)]
T50 ([1]; 0.3 µM, individual experiments, Fig. 2a): 225.667 min and 200.6 min and 198.8 min
T50 ([1]; 1 µM, individual experiments, Fig. 2a): 245.5 min and 222.6 min and 227.433 min
T50 [1, 2]: 295.5 min and 257.733 min and 269.633 min
T50 [1, 3]: 669.833 min and 505.133 min and 608.55 min
T50 ([1]; concentration 0.3 μM, one value per experiment): 225.667 and 200.6 and 198.8
T50 ([1]; concentration 1 μM, one value per experiment): 245.5 and 222.6 and 227.433
T50 ([1]; concentration 3 μM, one value per experiment): 295.5 and 257.733 and 269.633
T50 ([1]; concentration 10 μM, one value per experiment): 669.833 and 505.133 and 608.55
stronger inhibition than (OEG11)2-IP4, activity by unit mass ([1]; from c350 in mg/L): 32%
activity/unit mass [1]: 4.30 mg/L
concentration upon which a T50 of 350 min is reached (c350), mean [1]: 4.9 µM
concentration upon which a T50 of 350 min is reached (c350), single experiment ([1]; one value per experiment (lab journal reference E05-E40)): 4.3 µM and 5.9 µM and 5.0 µM and 3.6 µM and 5.4 µM
Concentration at T50 = 350 min mean ± s.d. (n) (c350) ([1]; pooled human serum, 10 mM calcium, 6 mM phosphate, 37 °C): 4.9 ± 0.8 µM and 4.3 ± 0.7 mg/L
fold higher concentration necessary in CPP-induced vs CaP-induced VSMC calcification assay (primary human VSMCs): roughly 10 fold
VSMC calcium deposition, % of CPP2 control (primary human VSMCs; 1 µM, 48 h, replicates Fig. 3e): 88.4113% and 80.5453% and 68.3456% and 69.0785%
VSMC calcium deposition, % of CPP2 control (primary human VSMCs; 3 µM, 48 h): 92.4907% and 73.6279% and 53.9051% and 56.3804%
concentration at which decrease of CPP2-induced calcification became significant (primary human VSMCs; 48 h): 10 µM

O=P(O)(O)O[C@H]1[C@H](OP(=O)(O)O)[C@@H](OP(=O)(O)O)[C@H](OP(=O)(O)O)[C@@H](OP(=O)(O)O)[C@H]1OP(=O)(O)O [IP6, myo-Inositol hexakisphosphate]
T50 [1, 2]: 234.667 min and 274 min and 233.967 min and 253.933 min and 243.267 min and 241.767 min and 246.2 min and 235.9 min and 228.633 min and 203.267 min and 288.2 min and 222.867 min and 230.267 min and 213.667 min and 216.7 min and 265.633 min and 255.267 min
T50 ([1]; 4.1 µM, individual experiments, Fig. 2a): 217.4 min and 239.4 min and 277.7 min and 241.067 min
T50 ([1]; 5 µM, individual experiments, Fig. 2a): 249.8 min and 203.1 min and 210 min
T50 ([1]; 8.2 µM, individual experiments, Fig. 2a): 256.2 min
T50 [1, 3]: 257.5 min and 310.933 min and 271.067 min and 277.3 min and 252.767 min and 292.233 min and 259.167 min and 287.2 min and 285.433 min and 258.3 min and 249.2 min and 255.267 min and 337.4 min and 269.2 min and 241.433 min and 220.9 min and 227.45 min and 265.233 min and 247.333 min and 278 min and 268.867 min
T50 ([1]; 15 µM, individual experiments, Fig. 2a): 257.433 min and 252.1 min and 309.067 min and 247.867 min
T50 ([1]; 20 µM, individual experiments, Fig. 2a): 287.15 min and 265.7 min and 269.8 min
T50 ([1]; 30 µM, individual experiments, Fig. 2a): 345.45 min and 406.133 min and 372.8 min and 351.75 min and 343.7 min and 344.2 min and 259.35 min and 335.5 min and 347.9 min and 378.6 min and 321.233 min and 338 min and 297.667 min and 289.1 min and 328.133 min and 313.633 min and 374.867 min and 311.7 min and 330.9 min and 290.033 min and 322.15 min and 364.5 min and 339.867 min
T50 ([1]; 50 µM, individual experiments, Fig. 2a): 415 min and 521.55 min and 441.5 min and 442 min and 442.167 min and 430.55 min and 469.15 min and 469.7 min and 444.5 min and 341.15 min and 548.25 min and 437.6 min and 408.433 min and 339.067 min and 334.933 min and 396.5 min and 364.133 min and 373.7 min and 353.2 min and 360.8 min and 372.45 min and 446.2 min and 371.033 min and 410.7 min
activity/unit mass [1]: 30.85 mg/L
concentration upon which a T50 of 350 min is reached (c350), mean [1]: 35.0 µM
VSMC calcium deposition, % of CPP2 control (primary human VSMCs; 1 µM, 48 h, replicates Fig. 3e): 77.8896% and 82.8838% and 86.0538% and 91.73%
VSMC calcium deposition, % of CPP2 control (primary human VSMCs; 3 µM, 48 h): 95.5105% and 90.2183% and 79.3785% and 87.2842%
VSMC calcium deposition, % of CPP2 control (primary human VSMCs; 10 µM, 48 h): 37.8415%
VSMC calcium deposition, % of CPP2 control (primary human VSMCs; 30 µM, 48 h): 57.6847% and 47.1535% and 71.7458% and 75.8811%
VSMC calcium deposition, % of CPP2 control (primary human VSMCs; 100 µM, 48 h): 79.2544% and 65.4345% and 85.4719%
